Experimental data as given in US9988400B2 (Genentech, Inc., priority 2013, dated 2018).

Molecular target: T1, HEK cells stably transfected with tetracycline inducible hNR1 and hNR2A (Homo sapiens, UniProt Q05586+Q12879)
T1 construct: expressed in transfected cells; host or cells: HEK cells, stably transfected, tetracycline/doxycycline inducible
Test: Assay 1: Cell-Based Assay, cytosolic calcium response to positive allosteric modulators (with 30 μM glycine and 300 nM L-glutamate, EC30)
Details: for EC50: cytosolic calcium response, with 30 μM glycine and 300 nM L-glutamate (EC30), — = no plateau was reached; for Max %: responses scaled relative to 100 μM L-glutamate maximal response (100%) and 0 μM L-glutamate (0%)
In short: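 Cells induced 24 h with 7.5 μg mL^−1 doxycycline plus 500 μM (+)-ketamine, loaded 60 min at 37 °C with calcium dye in Mg-free HBSS (1.8 mM Ca, probenecid, 10 μM (+)-ketamine, pH 7.15). Peak RFU over 5 min after compound addition, scaled to 100 μM L-glutamate (100%) and 0 μM (0%); four-parameter Hill fit for EC50, max % if no plateau.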

T1 sequence (Q12879 23-1464, other chains not shown): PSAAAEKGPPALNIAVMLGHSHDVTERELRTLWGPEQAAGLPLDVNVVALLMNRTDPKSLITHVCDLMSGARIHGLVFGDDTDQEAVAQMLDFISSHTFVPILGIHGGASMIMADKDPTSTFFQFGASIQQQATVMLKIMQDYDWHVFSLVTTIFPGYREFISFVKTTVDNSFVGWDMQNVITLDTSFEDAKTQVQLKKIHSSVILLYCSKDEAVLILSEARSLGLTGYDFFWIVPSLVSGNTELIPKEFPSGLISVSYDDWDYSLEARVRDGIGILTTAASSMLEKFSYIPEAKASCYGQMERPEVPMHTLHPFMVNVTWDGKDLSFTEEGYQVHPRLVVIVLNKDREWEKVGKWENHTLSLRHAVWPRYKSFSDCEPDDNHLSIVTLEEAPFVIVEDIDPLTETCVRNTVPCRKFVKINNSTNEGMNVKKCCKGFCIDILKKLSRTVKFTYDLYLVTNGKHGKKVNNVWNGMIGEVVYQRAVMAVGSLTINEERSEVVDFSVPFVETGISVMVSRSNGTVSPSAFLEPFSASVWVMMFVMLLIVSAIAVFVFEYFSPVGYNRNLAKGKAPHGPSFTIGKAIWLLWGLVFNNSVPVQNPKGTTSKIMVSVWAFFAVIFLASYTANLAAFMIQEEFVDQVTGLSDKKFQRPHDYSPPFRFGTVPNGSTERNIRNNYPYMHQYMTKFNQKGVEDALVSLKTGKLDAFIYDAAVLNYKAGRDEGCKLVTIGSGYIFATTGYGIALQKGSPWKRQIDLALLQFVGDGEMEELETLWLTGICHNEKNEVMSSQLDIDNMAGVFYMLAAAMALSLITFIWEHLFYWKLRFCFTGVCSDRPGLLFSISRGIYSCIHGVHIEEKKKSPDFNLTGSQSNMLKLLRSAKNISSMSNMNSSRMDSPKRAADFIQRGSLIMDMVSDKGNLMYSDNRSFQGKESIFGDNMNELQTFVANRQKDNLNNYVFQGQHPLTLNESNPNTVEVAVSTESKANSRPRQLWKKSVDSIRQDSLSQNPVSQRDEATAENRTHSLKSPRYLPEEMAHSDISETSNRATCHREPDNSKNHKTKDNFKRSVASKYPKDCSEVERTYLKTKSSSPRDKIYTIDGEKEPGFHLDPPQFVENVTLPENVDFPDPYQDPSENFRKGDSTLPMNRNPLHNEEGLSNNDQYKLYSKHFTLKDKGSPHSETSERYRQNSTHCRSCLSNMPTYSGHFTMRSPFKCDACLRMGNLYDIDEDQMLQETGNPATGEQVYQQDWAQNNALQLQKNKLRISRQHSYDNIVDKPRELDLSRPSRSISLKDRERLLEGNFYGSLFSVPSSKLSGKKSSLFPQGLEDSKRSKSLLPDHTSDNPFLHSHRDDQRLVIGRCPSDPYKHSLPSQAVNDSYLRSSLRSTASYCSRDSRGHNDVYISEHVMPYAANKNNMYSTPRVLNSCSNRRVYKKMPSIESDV

Compound	EC50 (Table 3) [µM]	EC50 (Table 2) [µM]	Max % (Table 2) [%]
CCNC(=O)c1c(C(F)(F)F)sc2nc(Cc3cccc(C#N)c3F)cc(=O)n12 [compound 41, 7-[(3-cyano-2-fluoro-phenyl)methyl]-N-ethyl-5-oxo-2-(trifluoromethyl)thiazolo[3,2-a]pyrimidine-3-carboxamide]	4.78	–	–
CCN(Cc1cc(=O)n2c(-c3ccnnc3)c(C)sc2n1)c1ccc(F)cc1 [Example 5.30, 7-[(N-ethyl-4-fluoro-anilino)methyl]-2-methyl-3-pyridazin-4-yl-thiazolo[3,2-a]pyrimidin-5-one]	–	4.3	132
CNC(=O)c1c(C(F)(F)F)sc2nc(Cn3nc(C4CC4)cc3C(F)(F)F)cc(=O)n12 [compound 54, 7-[[3-cyclopropyl-5-(trifluoromethyl)pyrazol-1-yl]methyl]-N-methyl-5-oxo-2-(trifluoromethyl)thiazolo[3,2-a]pyrimidine-3-carboxamide]	2.2	–	–
CCNC(=O)c1c(C)sc2nc(Cc3cccc(NS(C)(=O)=O)c3)cc(=O)n12 [Example 21.39, N-ethyl-2-methyl-7-(3-(methylsulfonamido)benzyl)-5-oxo-5H-thiazolo[3,2-a]pyrimidine-3-carboxamide]	–	–	62.6
CCN(Cc1cc(=O)n2c(-c3cnn(C)c3)c(C)sc2n1)c1ccc(F)cc1 [Example 5.33, 7-[(N-ethyl-4-fluoro-anilino)methyl]-2-methyl-3-(1-methylpyrazol-4-yl)thiazolo[3,2-a]pyrimidin-5-one]	–	4.2	120
Cc1sc2nc(CNc3ccc(F)cc3)cc(=O)n2c1-c1cncnc1 [Example 5.13, 7-((4-fluorophenylamino)methyl)-2-methyl-3-(pyrimidin-5-yl)-5H-thiazolo[3,2-a]pyrimidin-5-one]	–	–	87.9
Cc1sc2nc(Cn3ncc4ccccc43)cc(=O)n2c1[C@@H]1C[C@H]1CO (relative stereo) [Example 15.6, 7-((1H-indazol-1-yl)methyl)-3-(trans-2-(hydroxymethyl)cyclopropyl)-2-methyl-5H-thiazolo[3,2-a]pyrimidin-5-one]	–	9.2	138
CCNC(=O)c1csc2nc(Cn3nc(C(F)(F)F)cc3C3CC3)cc(=O)n12 [Example 16.5, 7-((5-cyclopropyl-3-(trifluoromethyl)-1H-pyrazol-1-yl)methyl)-N-ethyl-5-oxo-5H-thiazolo[3,2-a]pyrimidine-3-carboxamide]	–	10.6	149
CCN(Cc1cc(=O)n2c3c(sc2n1)CCN(C)C3)c1ccc(F)cc1 [Example 8.10, 2-[(N-ethyl-4-fluoro-anilino)methyl]-7-methyl-8,9-dihydro-6H-pyrido[3,4]thiazolo[1,4-a]pyrimidin-4-one]	–	12.5	127
CNC(=O)c1c(C)sc2nc(Cc3cc(C(F)(F)F)ccc3Cl)cc(=O)n12 [compound 14, 7-[[2-chloro-5-(trifluoromethyl)phenyl]methyl]-N,2-dimethyl-5-oxo-thiazolo[3,2-a]pyrimidine-3-carboxamide]	1.56	–	–
CCNC(=O)c1c(C)sc2nc(Cc3cccc(C#N)c3)cc(=O)n12 [Example 21.8, 7-(3-cyanobenzyl)-N-ethyl-2-methyl-5-oxo-5H-thiazolo[3,2-a]pyrimidine-3-carboxamide]	–	–	99.3
CNC(=O)c1c(C(F)(F)F)sc2nc(Cn3nc(C(F)(F)F)cc3C)cc(=O)n12 [compound 61, N-methyl-7-[[5-methyl-3-(trifluoromethyl)pyrazol-1-yl]methyl]-5-oxo-2-(trifluoromethyl)thiazolo[3,2-a]pyrimidine-3-carboxamide]	8.06	–	–
Cc1sc2nc(Cn3nc(C(F)F)cc3C)cc(=O)n2c1[C@@H]1C[C@H]1CO (relative stereo) [Example 15.22, 7[[3-(difluoromethyl)-5-methyl-pyrazol-1-yl]methyl]-3-[trans-2-(hydroxymethyl)cyclopropyl]-2-methyl-thiazolo[3,2-a]pyrimidin-5-one]	–	0.704	149
CCN(Cc1cc(=O)n2c(-c3cccnc3N)c(C)sc2n1)c1ccc(F)cc1 [Example 5.11, 3-(2-aminopyridin-3-yl)-7-((ethyl(4-fluorophenyl)amino)methyl)-2-methyl-5H-thiazolo[3,2-a]pyrimidin-5-one]	–	2.9	118
Cc1sc2nc(COc3ccc(F)cc3)cc(=O)n2c1-c1nnc[nH]1 [Example 4.16, 7-((4-fluorophenoxy)methyl)-2-methyl-3-(4H-1,2,4-triazol-3-yl)-5H-thiazolo[3,2-a]pyrimidin-5-one]	–	–	46.2
Cc1sc2nc(Cn3nc(C(F)(F)F)cc3C3CC3)cc(=O)n2c1[C@@H]1C[C@H]1CO (relative stereo) [Example 15.11, 7-((5-cyclopropyl-3-(trifluoromethyl)-1H-pyrazol-1-yl)methyl)-3-(trans-2-(hydroxymethyl)cyclopropyl)-2-methyl-5H-thiazolo[3,2-a]pyrimidin-5-one]	–	0.151	159
CCN(Cc1cc(=O)n2c(-c3cncnc3)c(C)sc2n1)c1ccccn1 [Example 5.12, 7-((ethyl(pyridine-2-yl)amino)methyl)-2-methyl-3-(pyrimidin-5-yl)-5H-thiazolo[3,2-a]pyrimidin-5-one]	–	–	106
Cc1sc2nc(Cc3cccc(C#N)c3F)cc(=O)n2c1-c1ccco1 [Example 24.8, 2-fluoro-3-((3-(furan-2-yl)-2-methyl-5-oxo-5H-thiazolo[3,2-a]pyrimidin-7-yl)methyl)benzonitrile]	–	8.9	–
Cc1sc2nc(COc3ccc(F)cc3)cc(=O)n2c1C1CC1C#N (single isomer, unassigned) [Example 4.19, cis-2-[7-(4-Fluorophenoxymethyl)-2-methyl-5-oxo-5H-[1,3]thiazolo[3,2-a]pyrimidin-3-yl]cyclopropane-1-carbonitrile]	–	9	46.9
CCN(C)C(=O)c1c(C)sc2nc(Cc3cccc(C(F)(F)F)c3F)cc(=O)n12 [Example 22.2, N-ethyl-7-(2-fluoro-3-(trifluoromethyl)benzyl)-N,2-dimethyl-5-oxo-5H-thiazolo[3,2-a]pyrimidine-3-carboxamide]	–	–	41.4
CNC(=O)c1c(C)sc2nc(Cc3cccc(Cl)c3)cc(=O)n12 [Example 21.16, 7-[(3-chlorophenyl)methyl]-N,2-dimethyl-5-oxo-thiazolo[3,2-a]pyrimidine-3-carboxamide]	–	14.3	107
CCNC(=O)c1c(C)sc2nc(Cn3nc(C4CC4)cc3Cl)cc(=O)n12 [compound 23, 7-[(5-chloro-3-cyclopropyl-pyrazol-1-yl)methyl]-N-ethyl-2-methyl-5-oxo-thiazolo[3,2-a]pyrimidine-3-carboxamide]	3.48	–	–

The next lines start with the values.

EC50 (Table 3) [µM]	EC50 (Table 2) [µM]	Max % (Table 2) [%]	Compound
0.501	–	–	Cc1sc2nc(Cn3nc(C(F)(F)F)cc3Cl)cc(=O)n2c1/C=C\C#N [compound 263, (Z)-3-[7-[[5-chloro-3-(trifluoromethyl)pyrazol-1-yl]methyl]-2-methyl-5-oxo-thiazolo[3,2-a]pyrimidin-3-yl]prop-2-enenitrile]
37.1	–	–	Cc1sc2nc(Cc3cccc(C(F)(F)F)c3F)cc(=O)n2c1-c1ncn[nH]1 [compound 240, 7-[[2-Fluoro-3-(trifluoromethyl)phenyl]methyl]-2-methyl-3-(1H-1,2,4-triazol-5-yl)thiazolo[3,2-a]pyrimidin-5-one]
10.9	–	–	Cc1sc2nc(Cn3nc(Cl)cc3C(F)(F)F)cc(=O)n2c1C(C)CO (stereo not shown) [compound 223, 7-[[3-chloro-5-(trifluoromethyl)pyrazol-1-yl]methyl]-3-(2-hydroxy-1-methyl-ethyl)-2-methyl-thiazolo[3,2-a]pyrimidin-5-one]
0.155	–	–	N#CC1CC1c1c(C(F)(F)F)sc2nc(Cn3nc(C(F)(F)F)cc3Cl)c(F)c(=O)n12 (single isomer, unassigned) [compound 277]
2.45	–	–	CCN(Cc1cc(=O)n2c(/C=C\C#N)c(C)sc2n1)c1ccc(F)cc1 [compound 260, (Z)-3-[7-[(N-ethyl-4-fluoro-anilino)methyl]-2-methyl-5-oxo-thiazolo[3,2-a]pyrimidin-3-yl]prop-2-enenitrile]
1.88	–	–	Cc1sc2nc(Cn3nc(C(F)(F)F)cc3Cl)cc(=O)n2c1C(C)O (stereo not shown) [compound 110, 7-[[5-chloro-3-(trifluoromethyl)pyrazol-1-yl]methyl]-3-(1-hydroxyethyl)-2-methyl-thiazolo[3,2-a]pyrimidin-5-one]
0.0547	–	–	Cc1sc2nc(Cn3nc(C(F)(F)F)cc3Cl)cc(=O)n2c1C1CC1CO (stereo not shown) [compound 102, 7-[[5-chloro-3-(trifluoromethyl)pyrazol-1-yl]methyl]-3-[2-(hydroxymethyl)cyclopropyl]-2-methyl-thiazolo[3,2-a]pyrimidin-5-one]
1.42	–	–	Cc1sc2nc(Cn3nc(C(F)(F)F)cc3Cl)cc(=O)n2c1-c1ncco1 [compound 158, 7-[[5-chloro-3-(trifluoromethyl)pyrazol-1-yl]methyl]-2-methyl-3-oxazol-2-yl-thiazolo[3,2-a]pyrimidin-5-one]
47.1	–	–	O=c1cc(Cc2cccc(C(F)(F)F)c2F)nc2sc3c(n12)C(CO)CC3 (stereo not shown) [compound 92]
0.889	–	–	CCNC(=O)c1c(C(C)=O)sc2nc(Cn3nc(C(F)(F)F)cc3Cl)cc(=O)n12 [compound 237, 2-acetyl-7-[[5-chloro-3-(trifluoromethyl)pyrazol-1-yl]methyl]-N-ethyl-5-oxo-thiazolo[3,2-a]pyrimidine-3-carboxamide]
1.42	–	–	O=c1cc(Cn2nc(Cl)cc2C(F)(F)F)nc2scc(Br)n12 [compound 226, 3-bromo-7-[[3-chloro-5-(trifluoromethyl)pyrazol-1-yl]methyl]thiazolo[3,2-a]pyrimidin-5-one]
